# Source: ChEMBL document CHEMBL3526017, “Predicting the drug interaction potential of AMG 853, a dual antagonist of the D-prostanoid and chemoattractant receptor-homologous molecule expressed on T helper 2 cells receptors” (Drug Metab Dispos, 2012)
# Columns and labels:
# [1] = molecular target: T1, UDP-glucuronosyltransferase 1A1 (Homo sapiens, UniProt P22309); test: Drug metabolism assessed as human recombinant UGT1A1-mediated compound formation treated with AMG 853 at 10 uM after 30 mins by LC-MS/MS analysis; assay type: ADME; conditions: recombinant enzyme, 0.5 h
# T1 sequence (P22309 whole entry): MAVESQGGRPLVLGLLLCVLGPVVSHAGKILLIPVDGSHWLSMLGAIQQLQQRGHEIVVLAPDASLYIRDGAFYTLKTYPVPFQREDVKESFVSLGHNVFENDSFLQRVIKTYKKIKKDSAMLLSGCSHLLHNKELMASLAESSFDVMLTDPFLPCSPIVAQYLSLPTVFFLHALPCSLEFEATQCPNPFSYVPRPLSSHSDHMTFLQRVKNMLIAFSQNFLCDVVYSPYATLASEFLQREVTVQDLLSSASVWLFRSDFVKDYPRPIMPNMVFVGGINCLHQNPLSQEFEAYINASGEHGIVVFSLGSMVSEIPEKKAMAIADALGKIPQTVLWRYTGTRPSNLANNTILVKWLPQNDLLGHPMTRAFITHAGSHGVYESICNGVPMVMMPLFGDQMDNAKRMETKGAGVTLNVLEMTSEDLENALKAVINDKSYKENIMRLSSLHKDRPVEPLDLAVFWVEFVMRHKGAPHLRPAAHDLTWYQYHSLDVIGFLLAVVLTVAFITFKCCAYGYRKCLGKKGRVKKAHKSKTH
# [2] = molecular target: UDP-glucuronosyltransferase 1A8 (Homo sapiens, UniProt Q9HAW9); test: Drug metabolism assessed as human recombinant UGT1A8-mediated compound formation treated with AMG 853 at 10 uM after 30 mins by LC-MS/MS analysis; assay type: ADME; conditions: recombinant enzyme, 0.5 h
# Sequence of UDP-glucuronosyltransferase 1A8 (Q9HAW9 whole entry): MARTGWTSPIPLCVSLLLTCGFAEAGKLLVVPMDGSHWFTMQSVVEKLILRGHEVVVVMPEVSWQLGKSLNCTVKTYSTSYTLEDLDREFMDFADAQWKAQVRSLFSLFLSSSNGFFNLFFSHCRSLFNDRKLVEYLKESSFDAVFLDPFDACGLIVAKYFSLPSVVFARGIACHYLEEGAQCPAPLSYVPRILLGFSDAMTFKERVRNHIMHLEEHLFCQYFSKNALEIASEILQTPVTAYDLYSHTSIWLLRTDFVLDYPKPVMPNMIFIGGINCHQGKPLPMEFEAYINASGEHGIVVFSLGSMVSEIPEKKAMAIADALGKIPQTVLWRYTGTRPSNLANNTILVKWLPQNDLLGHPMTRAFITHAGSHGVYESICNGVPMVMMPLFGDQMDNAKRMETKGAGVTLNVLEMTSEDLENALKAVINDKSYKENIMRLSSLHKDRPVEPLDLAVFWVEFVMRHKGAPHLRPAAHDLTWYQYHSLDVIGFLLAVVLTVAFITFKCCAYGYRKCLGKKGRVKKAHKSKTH
# [3] = molecular target: T2, Cytochrome P450 2C8 (Homo sapiens, UniProt P10632); test: Linear mixed inhibition of CYP2C8 in human liver microsomes assessed as paclitaxel 6-hydroxylation after 20 mins by LC-MS/MS analysis; assay type: ADME
# T2 sequence (P10632 whole entry): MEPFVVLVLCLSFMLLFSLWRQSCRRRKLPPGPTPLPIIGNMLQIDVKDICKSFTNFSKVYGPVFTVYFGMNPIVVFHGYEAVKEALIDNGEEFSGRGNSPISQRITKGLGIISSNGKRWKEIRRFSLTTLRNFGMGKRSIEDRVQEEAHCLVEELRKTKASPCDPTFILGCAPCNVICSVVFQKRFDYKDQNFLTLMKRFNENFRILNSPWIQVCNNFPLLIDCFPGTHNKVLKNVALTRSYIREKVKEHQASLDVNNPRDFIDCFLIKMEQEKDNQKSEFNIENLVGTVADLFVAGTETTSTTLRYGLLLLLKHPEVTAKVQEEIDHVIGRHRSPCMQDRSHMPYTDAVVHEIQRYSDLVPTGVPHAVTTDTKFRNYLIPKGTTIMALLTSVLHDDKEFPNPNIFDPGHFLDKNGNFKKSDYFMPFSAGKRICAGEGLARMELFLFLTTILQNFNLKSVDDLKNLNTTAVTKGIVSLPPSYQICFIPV
# [4] = Cmax in healthy human at 50 mg, po; assay type: ADME, organism-based; design: dose 50 mg, route oral; conditions: in vivo
# [5] = test system: Liver microsome; test: Drug metabolism in human liver microsomes assessed as 2-(4-(4-(tert-butylcarbamoyl)-2-(2-chloro-4-(1-hydroxycyclopropyl)phenylsulfonamido)phenoxy)-5-chloro-2-fluorophenyl)acetic acid formation at 2 uM after 60 mins by LC-MS/MS analysis in presence of ketoconazole; assay type: ADME; conditions: 1 h
# [6] = molecular target: CYP1A2 (Homo sapiens, UniProt P05177); test: Induction of CYP1A2 in human hepatocytes using phenacetin as substrate at 0.3 to 30 uM treated every 24 hrs for 2 days measured on day 5 by LC-MS/MS analysis relative to control; assay type: ADME, cell-based, Hepatocyte; conditions: probe phenacetin, read-out: FC
# Sequence of CYP1A2 (Homo sapiens, UniProt P05177) (P05177 whole entry): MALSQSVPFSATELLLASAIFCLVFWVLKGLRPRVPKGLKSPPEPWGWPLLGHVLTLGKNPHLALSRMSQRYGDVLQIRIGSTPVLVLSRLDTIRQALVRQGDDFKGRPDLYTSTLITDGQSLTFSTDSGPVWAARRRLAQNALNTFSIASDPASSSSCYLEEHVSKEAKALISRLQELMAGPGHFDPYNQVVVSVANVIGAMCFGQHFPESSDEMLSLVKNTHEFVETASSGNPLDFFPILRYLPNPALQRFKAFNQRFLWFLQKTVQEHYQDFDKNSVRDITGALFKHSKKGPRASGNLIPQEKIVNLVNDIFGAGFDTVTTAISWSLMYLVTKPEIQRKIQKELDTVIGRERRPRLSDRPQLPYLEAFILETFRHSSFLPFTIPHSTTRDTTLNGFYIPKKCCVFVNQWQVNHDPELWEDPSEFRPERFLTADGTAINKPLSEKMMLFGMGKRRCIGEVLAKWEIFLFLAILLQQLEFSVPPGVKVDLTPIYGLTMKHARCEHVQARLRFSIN
# [7] = molecular target: T2, Cytochrome P450 2C8; test: Drug metabolism assessed as recombinant CYP2C8 (unknown origin)-mediated 2-(4-(4-(tert-butylcarbamoyl)-2-(2-chloro-4-(1-hydroxycyclopropyl)phenylsulfonamido)phenoxy)-5-chloro-2-fluorophenyl)acetic acid formation at 10 uM after 30 mins by LC-MS/MS analysis; assay type: ADME; conditions: recombinant enzyme, 0.5 h
# [8] = test system: Liver microsome; test: Drug metabolism in human liver microsomes assessed as 2-(5-chloro-4-(2-(2-chloro-4-cyclopropylphenylsulfonamido)-4-(1-hydroxy-2-methylpropan-2-ylcarbamoyl)phenoxy)-2-fluorophenyl)acetic acid formation at 2 uM after 60 mins by LC-MS/MS analysis in presence of ketoconazole; assay type: ADME; conditions: 1 h
# [9] = molecular target: T2, Cytochrome P450 2C8; test: Drug metabolism assessed as recombinant CYP2C8 (unknown origin)-mediated 2-(5-chloro-4-(2-(2-chloro-4-cyclopropylphenylsulfonamido)-4-(1-hydroxy-2-methylpropan-2-ylcarbamoyl)phenoxy)-2-fluorophenyl)acetic acid formation at 10 uM after 30 mins by LC-MS/MS analysis; assay type: ADME; conditions: recombinant enzyme, 0.5 h
# [10] = test system: CYP1A2; test: Upregulation of CYP1A2 mRNA expression in human hepatocytes at 0.3 to 30 uM treated every 24 hrs for 2 days measured on day 5 relative to control; assay type: ADME, cell-based, Hepatocyte; conditions: read-out: FC
# [11] = Drug metabolism in human liver microsomes assessed as […]-mediated (2S,3S,4S,5R,6S)-6-(2-(4-(4-(tert-butylcarbamoyl)-2-(2-chloro-4-cyclopropylphenylsulfonamido)phenoxy)-5-chloro-2-fluorophenyl)acetoxy)-3,4,5-trihydroxytetrahydro-2H-pyran-2-carboxylic acid formation after 15 mins by LC-MS/MS analysis in presence of UDPGA; assay type: ADME; conditions: 0.25 h
# [12] = molecular target: UDP-glucuronosyltransferase 1A4 (Homo sapiens, UniProt P22310); test: Drug metabolism assessed as human recombinant UGT1A4-mediated (2S,3S,4S,5R,6S)-6-(2-(4-(4-(tert-butylcarbamoyl)-2-(2-chloro-4-cyclopropylphenylsulfonamido)phenoxy)-5-chloro-2-fluorophenyl)acetoxy)-3,4,5-trihydroxytetrahydro-2H-pyran-2-carboxylic acid formation at 10 uM after 30 mins by LC-MS/MS analysis; assay type: ADME; conditions: recombinant enzyme, 0.5 h
# Sequence of UDP-glucuronosyltransferase 1A4 (P22310 whole entry): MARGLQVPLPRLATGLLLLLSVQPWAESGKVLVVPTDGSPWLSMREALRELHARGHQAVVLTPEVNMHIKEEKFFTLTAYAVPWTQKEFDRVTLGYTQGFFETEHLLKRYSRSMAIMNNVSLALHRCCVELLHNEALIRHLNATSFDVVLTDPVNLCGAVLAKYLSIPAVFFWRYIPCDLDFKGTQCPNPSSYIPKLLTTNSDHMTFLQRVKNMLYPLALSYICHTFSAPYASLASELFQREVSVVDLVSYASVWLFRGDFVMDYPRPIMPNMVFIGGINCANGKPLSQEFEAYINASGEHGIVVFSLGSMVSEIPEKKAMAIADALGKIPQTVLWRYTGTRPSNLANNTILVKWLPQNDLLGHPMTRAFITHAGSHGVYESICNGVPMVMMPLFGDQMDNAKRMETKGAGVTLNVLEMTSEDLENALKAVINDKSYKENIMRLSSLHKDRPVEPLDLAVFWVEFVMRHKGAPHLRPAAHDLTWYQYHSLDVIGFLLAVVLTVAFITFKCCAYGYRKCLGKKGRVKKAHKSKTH
SMILES,Drug metabolism [1],Drug metabolism [2],Ki [3],Cmax [4],Drug metabolism [5],"fold induction at 48 h, up to 30 µM [6]",Drug metabolism [7],Drug metabolism [8],Drug metabolism [9],"fold induction at 48 h, up to 30 µM [10]",Drug metabolism [11],Drug metabolism [12]
CC(C)(C)NC(=O)c1ccc(Oc2cc(F)c(CC(=O)O[C@@H]3O[C@H](C(=O)O)[C@@H](O)[C@H](O)[C@H]3O)cc2Cl)c(NS(=O)(=O)c2ccc(C3CC3)cc2Cl)c1,metabolite_detected,metabolite_detected,2.7 µM,–,–,–,–,–,–,–,–,–
CC(C)(C)NC(=O)c1ccc(Oc2cc(F)c(CC(=O)O)cc2Cl)c(NS(=O)(=O)c2ccc(C3CC3)cc2Cl)c1 [VIDUPIPRANT],–,–,–,227 ng/mL,metabolite_not_detected,1.4,metabolite_detected,metabolite_not_detected,metabolite_detected,1.7,metabolite_detected,metabolite_detected
